By Kd is commonly meant the constant that tells how readily two partners part at equilibrium. A low value points to higher affinity.

Data on 1 molecule can be found in article PMC10278977, “Caenorhabditis elegans NMAD-1 functions as a demethylase for actin” (Journal of Molecular Cell Biology, 2023).

Test [1] has as its target T1, NMAD-1_32–291 (NMAD-1 truncation Δ1–31) (Caenorhabditis elegans, UniProt Q8MNT9).
T1 construct: residues 32-291, N-terminal flexible region removed
T1 sequence (Q8MNT9 32-291): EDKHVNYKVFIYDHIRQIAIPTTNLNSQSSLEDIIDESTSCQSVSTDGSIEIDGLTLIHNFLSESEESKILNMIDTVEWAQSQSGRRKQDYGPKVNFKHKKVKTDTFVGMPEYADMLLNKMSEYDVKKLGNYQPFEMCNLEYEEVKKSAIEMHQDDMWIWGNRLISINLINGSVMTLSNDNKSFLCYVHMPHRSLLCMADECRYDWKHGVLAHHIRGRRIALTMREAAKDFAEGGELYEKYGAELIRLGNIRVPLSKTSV
The test is described as follows: binding affinity measurement, method not given. The source says: binding affinity measurement, method not told in main text on NMAD-1_32–291 (NMAD-1 truncation Δ1–31) | NOG as the full-length NMAD-1 (Supplementary Figure S3C)

Test [2] deals with T2, NMAD-1 (WT, full-length) (Caenorhabditis elegans, UniProt Q8MNT9).
T2 construct: recombinant full-length protein
T2 sequence (Q8MNT9 1-291): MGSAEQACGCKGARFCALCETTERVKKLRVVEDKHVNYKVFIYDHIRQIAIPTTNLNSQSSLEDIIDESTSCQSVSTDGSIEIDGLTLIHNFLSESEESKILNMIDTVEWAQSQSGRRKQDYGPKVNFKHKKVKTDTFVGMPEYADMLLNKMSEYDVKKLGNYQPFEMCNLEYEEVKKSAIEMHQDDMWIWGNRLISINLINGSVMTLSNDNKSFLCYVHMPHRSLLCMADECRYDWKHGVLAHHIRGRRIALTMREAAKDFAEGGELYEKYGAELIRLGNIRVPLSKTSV
Description: isothermal titration calorimetry. The class given is binding. The source says: isothermal titration calorimetry on NMAD-1 (WT, full-length) | the cofactor analog N-oxalylglycine (NOG) with dissociation constants (KD) of […]
Background: In ITC the heat of successive injections is recorded.

The target of test [3] is T3, CTD-deleted NMAD-1 (ΔCTD, residues 1–259) (Caenorhabditis elegans, UniProt Q8MNT9).
T3 construct: residues 1-259, C-terminal domain deleted
T3 sequence (Q8MNT9 1-259): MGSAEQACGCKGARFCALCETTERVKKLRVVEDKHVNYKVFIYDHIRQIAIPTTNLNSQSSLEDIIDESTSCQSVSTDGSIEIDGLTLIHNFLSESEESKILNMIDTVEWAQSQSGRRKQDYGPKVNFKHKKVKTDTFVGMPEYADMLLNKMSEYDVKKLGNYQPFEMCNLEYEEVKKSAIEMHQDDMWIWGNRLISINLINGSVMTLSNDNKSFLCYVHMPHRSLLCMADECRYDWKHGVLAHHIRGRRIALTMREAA
Description: binding affinity measurement, method not given. The source says:
binding affinity measurement, method not told in main text on CTD-deleted NMAD-1 (ΔCTD, residues 1–259) | the CTD-deleted NMAD-1 retained the NOG binding affinity

Each structure is given as a SMILES string.

Consider `O=C(O)CNC(=O)C(=O)O` [N-oxalylglycine], for which the Kd in test [1] was 1250 ± 100 nM; in test [2] it was 1070 ± 110 nM; in test [3], 1680 ± 10 nM.
